The values that follow come from patent US20120164104A1, “Composition and Methods of Treating Viral Infections and Viral Induced Tumors” (Chimerix, Inc., priority 2009, published 2012).

Entries after “also recorded” stand apart in the source; their conditions may differ. Like-named read-outs stand apart in the source and are kept apart here.

Format in all cases: cell-based
In assay [1] the test system is JCV Mad-4. Description: Extracellular JCV load in JCV-infected COS-7 cells (qPCR). How it is done:
COS-7 supernatants were harvested 5 […] post start of treatment with indicated CMX001 concentrations. JCV load was measured by qPCR and input virus subtracted. DNA load in untreated cells (5.04×10 E+9 geq/ml) was set as 100%. Replication of JCV is shown as percentage of untreated cells to determine the IC-50 and IC-90. […] Supernatants from CMX001-treated and untreated JCV-infected COS-7 cells were harvested at indicated timepoints after infection and JCV load measured by qPCR. Data are presented as JCV load in log geq/ml. COS-7 or astrocyte cells were infected at a confluence of 60-70% with JCV(Mad-4) at an estimated TCID50 of 0.2. After 2 h incubation at 37° C., supernatants were replaced with fresh medium without or with increasing concentration CMX001. […] JCV loads were quantified after DNA extraction from 100 ul cell culture supernatants and the Corbett X-tractor Gene and the Corbett VX reagents (Qiagen, Hombrechtikon, Switzerland). The real-time PCR protocol for detection of JCV DNA samples targets the JCV large T coding sequence and has been described elsewhere (5). To investigate the effect of CMX001 on JCV progeny, increasing concentrations of CMX001 were added at 2 h p.i. and supernatants harvested at 5 d.p.i. It was observed that CMX001 reduced the extracellular JCV load in a concentration dependent manner (FIG. 12).
On the technique in general: Real-time PCR tracks product formation cycle by cycle.

Assay [2] relates to BKV(Dunlop). Briefly: Extracellular BKV load in supernatants of BKV-infected RPTECs (qPCR). How it is done: For FIG. 1(a), RPTEC supernatants were harvested 72 h p.i. i.e. 70 h post start of treatment with indicated CMX001 concentrations. BKV load was measured by […] and input virus subtracted. DNA load in untreated cells (1.05E+09 Geq/ml) was set as 100%.
FIG. 5 illustrates the influence of CMX001 0.31 μM on BKV extracellular BKV load. […] Supernatants from CMX001-treated and untreated BKV-infected RPTECs were harvested at indicated timepoints after infection and BKV load measured by qPCR. Data are presented as BKV load in Geq/ml.
For FIG. […] Supernatants were harvested 72 h p.i. and extracellular BKV load measured by qPCR. Data are presented in percent of untreated cells set at 100%.
(§1) Primary human renal proximal tubule epithelial cells (RPTECs), BKV(Dunlop) and all methods as previously described by Bernhoff et al (See Bernhoff et al., Cidofovir inhibits polyomavirus BK replication in human renal tubular cells downstream of viral early gene expression, Am J Transplant 8, 1413-1422 (2008).) Only one exception, quantitative PCR (qPCR) to quantify intracellular or extracellular BKV DNA load was performed with a different primer/probe set also targeting the LTag gene (See Hirsch, et al., J. Prospective study of polyomavirus type BK replication and nephropathy in renal-transplant recipients, N Engl J. Med., 347, 488-496 (2002)). Before each experiment, CMX001 was freshly dissolved to 1 mg/ml in methanol/water/ammonium hydroxide (50/50/2). It was further diluted in RPTEC growth medium.
To investigate the effect of CMX001 on BKV progeny, increasing concentrations of CMX001 were added 2 h p.i. and supernatants harvested at 72 h p.i. It was observed that CMX001 reduced the extracellular BKV load in a concentration dependent manner (See FIG. 1 a). […] With CMX001 0.31 uM an approximately 60% decrease in BKV agnoprotein expressing cells was seen. The number of cells expressing LTag was less reduced but the signal intensity was lower than in untreated cells. […] The conclusion is that CMX001 reduced the expression of early and late BKV proteins and the production of extracellular progeny but also seemed to affect the proliferation rate of RPTECs at higher concentrations.

The subject of assay [3] is BKV(Dunlop). Briefly: BKV early and late protein expression in infected RPTECs (immunofluorescence, western blot). The conditions noted are these: for LTag staining reduced / decrease of VP1 by western blotting: CMX001 0.31 μM. How it is done:
For FIG. 1(b), indirect immunofluorescence of untreated and CMX001 treated BKV-infected RPTECs, methanol fixed 72 h pd. and stained with rabbit anti-agnoprotein serum (green) for visualization of the late agnoprotein and with the SV40 LTag monoclonal Pab416 for visualization og BKV LTag (red). Cell density is shown by Drac 5 staining in blue.
For FIG. 4(a), indirect immunofluorescence of untreated and CMX001 treated BKV-infected RPTECs, methanol fixed 48 and 72 h p.i. and stained with rabbit anti-agnoprotein serum (green) for visualization of the late agnoprotein and with the SV40 LTag monoclonal Pab416 for visualization of BKV LTag (red). For FIG. 4(b), cell extracts from CMX001-treated and untreated BKV-infected RPTECs were harvested 48 and 72 h p.i. and western blot performed with rabbit anti-BKV VP1, anti-agnoprotein serum and a monoclonal antibody directed against the housekeeping protein GAPDH.
as §1
To investigate expression of LTag at the single-cell level, immunofluorescence staining at 48 and 72 h p.i was performed. At 48 h p.i. the number of BKV positive cells was almost the same in CMX001 and untreated wells. At 72 h p.i., the CMX001 treated cells seemed to express less LTag pro cell (FIG. 4a).
On the technique in general: In western blotting, separated proteins are transferred to a membrane and probed.

As to `CCCCCCCCCCCCCCCCOCCCOP(=O)(O)CO[C@H](CO)Cn1ccc(N)nc1=O` [CMX001], the “change in the JCV load over 7 days” value in assay [1] (5 nM CMX001, COS-7) is on record as “less than 1 log”. Besides, the IC50 in assay [1] (120 h, COS-7, day 5 p.i., viral input subtracted, read-out: inhibitory concentration IC-50 (extracellular JCV load)) was 150 nM. The IC90 is 600 nM in assay [1] (120 h, COS-7, day 5 p.i., viral input subtracted, read-out: inhibitory concentration IC-90 (extracellular JCV load)); 310 nM in assay [2] (Betapolyomavirus hominis, Epithelial cell, primary human renal proximal tubule epithelial cells (conclusion), read-out: IC90 against BK virus replication); 310 nM in assay [2] (RPTEC, RPTECs, added 2 h p.i., harvested 72 h p.i., viral input subtracted, read-out: inhibitory concentration IC90 (extracellular BKV load)). Besides, the “reduction of JCV viral load” value in assay [1] (CMX001 0.15 μM, day 5 p.i.) is > 50%. The “IC-90 concentration lower than concentrations reported for CDV inhibition of JCV” value in assay [1] (CMX001 0.6 μM, COS-7) is recorded as 2 orders of magnitude. Also, the “viral load at 7 d.p.i. relative to untreated cells at 3 d.p.i.” value in assay [1] (CMX001 5 uM, COS-7) worked out at 91%. Moreover, the “extracellular BKV load (timecourse)” value in assay [2] (CMX001 0.31 μM, 48 h p.i.) was “only input virus could be detected; also recorded: only input was detectable”. For the same compound, in assay [2] (CMX001 0.31 μM, 72 h p.i.), the “BKV load in supernatants from treated cells” value is given as 1.13×10^8 Geq/ml. For the same compound, in assay [2] (CMX001 0.31 μM, 72 h p.i.), the “BKV load in supernatants lower than in untreated cells (timecourse)” value was 84%. Besides, the “effect of pre-treatment on BKV load 72 h p.i.” value in assay [2] (RPTECs treated for 4 hours, ending 20 hours before infection) is recorded as “hardly any effect; also recorded: did not inhibit BKV replication”. Besides, the “reduction of viral load by pre-treatment” value in assay [2] (RPTECs treated for 23 hours until one hour before infection, 72 h p.i.) was “about 50%”. The “BKV-infected cells by immunofluorescence staining” value in assay [3] (5 uM CMX001, 72 h p.i.) was “only few weakly LTag stained cells but no agnoprotein expressing cells were observed”; in assay [3] (10 uM CMX001, 72 h p.i.), “no BKV-infected cell was observed”. The LTag staining reduced in assay [3] (48 h p.i.) was 33%; in assay [3] (72 h p.i.), 30%. In addition, the figures for the “decrease of VP1 by western blotting” value in assay [3] (48 h p.i.) and in assay [3] (72 h p.i.) were 86% and 63%, respectively. The “decrease in BKV agnoprotein expressing cells” value in assay [3] (CMX001 0.31 uM, immunofluorescence 72 h p.i.) is listed as “approximately 60%”.
